According to the supplement of paper PMC11562712:

Assay: first-order primary biodegradation rate constant k (sorption-corrected, fDis-corrected) (d-1); higher = faster biodegradation
Method: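 Modified OECD 309 water-sediment test. River water plus sieved sediment (50 g wet solid/L) from European river segments (DE, CH, ES, EL) was spiked with a mixture of 129 compounds at 1 ug/L each and incubated in the dark at river temperature for 10 days. The water phase was analysed by UHPLC-Orbitrap-MS. The first-order primary biodegradation rate constant k (d-1) is k_observed, corrected for dissipation in sterile sorption controls and divided by the dissolved fraction fDis; it was fitted over 3 replicate incubations. Invalid fits (p > 0.05, n < 5, not available, concentration increase) are excluded.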

[1] = river segment: Germany (DE) H_Contam, incubation temperature 24 °C
[2] = river segment: Germany (DE) T_Contam, incubation temperature 24 °C
[3] = river segment: Germany (DE) T_Pris, incubation temperature 24 °C
[4] = river segment: Greece (EL) A_Contam, incubation temperature 19 °C
[5] = river segment: Greece (EL) G_Contam, incubation temperature 19 °C
[6] = river segment: Greece (EL) G_Pris, incubation temperature 19 °C
[7] = river segment: Greece (EL) L_Contam, incubation temperature 19 °C
[8] = river segment: Spain (ES) B_Contam, incubation temperature 24 °C
[9] = river segment: Spain (ES) C_Contam, incubation temperature 24 °C
[10] = river segment: Spain (ES) L_Contam, incubation temperature 24 °C
[11] = river segment: Switzerland (CH) C_Contam, incubation temperature 17 °C
[12] = river segment: Switzerland (CH) R_Contam, incubation temperature 17 °C
[13] = river segment: Switzerland (CH) U_Contam, incubation temperature 17 °C
[14] = river segment: Switzerland (CH) U_Pris, incubation temperature 17 °C
[15] = river segment: Spain (ES) F_Pris_Salt, incubation temperature 24 °C

first-order primary biodegradation rate constant k [1] | first-order primary biodegradation rate constant k [3] | first-order primary biodegradation rate constant k [4] | first-order primary biodegradation rate constant k [5] | first-order primary biodegradation rate constant k [6] | first-order primary biodegradation rate constant k [7] | first-order primary biodegradation rate constant k [8] | first-order primary biodegradation rate constant k [9] | first-order primary biodegradation rate constant k [11] | first-order primary biodegradation rate constant k [12] | first-order primary biodegradation rate constant k [13] | first-order primary biodegradation rate constant k [15] | Structure (SMILES) | first-order primary biodegradation rate constant k [2] | first-order primary biodegradation rate constant k [10] | first-order primary biodegradation rate constant k [14]
0.0119 | 0.0124 | 0.285 | 0.00542 | 0.308 | 0.262 | 0.0257 | 0.0212 | 0.0127 | 0.0142 | 0.0268 | – | CC(=O)NC[C@H]1CN(c2ccc(N3CCOCC3)c(F)c2)C(=O)O1 [Linezolid] | 0.0934 | 0.0693 | 0.103
0.231 | 0.118 | – | 0.0886 | 0.0227 | – | 0.309 | 0.539 | 0.0688 | 0.251 | 0.246 | 0.0162 | CC(C)NCC(O)COc1cccc2ccccc12 (centres undefined) [Propranolol] | – | 0.303 | 0.29
0.499 | 0.446 | 1.09 | 1.68 | – | 1.94 | 0.863 | 0.301 | 0.314 | 0.45 | 1.95 | 0.146 | O=[N+]([O-])c1ccc(Cc2ccncc2)cc1 [4-(4-Nitrobenzyl)pyridine] | 1.05 | 1.1 | 2.28
0.0512 | 0.204 | 0.786 | 1.15 | – | – | 0.121 | 0.261 | 0.0347 | 0.0781 | 0.0824 | – | CCOc1ccccc1OCCN[C@H](C)Cc1ccc(OC)c(S(N)(=O)=O)c1 [Tamsulosin] | – | 0.41 | 0.0624
2.34 | – | 3.21 | 3.16 | 0.888 | – | 1.24 | 1.28 | – | 3.87 | 2.14 | – | CC(=O)Nc1ccc(O)cc1 [Paracetamol] | 3.16 | 2.82 | –
0.143 | 0.133 | 0.37 | – | 0.227 | 0.152 | 0.371 | 0.26 | 0.237 | – | – | – | Cc1ccc(C)c(OCCCC(C)(C)C(=O)O)c1 [Gemfibrozil] | 0.278 | 0.327 | 1.01
0.0259 | 0.127 | 0.19 | – | 0.127 | 0.215 | 0.0245 | 0.0361 | 0.0239 | 0.0245 | 0.0346 | – | CN(C)CCN1C(=O)c2ccccc2N(C)c2ccccc21 [Dibenzepin] | 0.567 | – | 0.0723
– | – | – | 0.337 | 0.0465 | 0.0519 | – | – | – | – | – | – | Nc1nnc(-c2cccc(Cl)c2Cl)c(N)n1 [Lamotrigine] | 0.0823 | – | –

Structure (SMILES) | first-order primary biodegradation rate constant k [1] | first-order primary biodegradation rate constant k [3] | first-order primary biodegradation rate constant k [4] | first-order primary biodegradation rate constant k [5] | first-order primary biodegradation rate constant k [6] | first-order primary biodegradation rate constant k [7] | first-order primary biodegradation rate constant k [8] | first-order primary biodegradation rate constant k [9] | first-order primary biodegradation rate constant k [11] | first-order primary biodegradation rate constant k [12] | first-order primary biodegradation rate constant k [13] | first-order primary biodegradation rate constant k [15] | first-order primary biodegradation rate constant k [2] | first-order primary biodegradation rate constant k [10] | first-order primary biodegradation rate constant k [14]
N#Cc1cc(Br)c(O)c(Br)c1 [Bromoxynil] | – | – | – | – | – | 0.0249 | – | – | – | – | – | – | 0.133 | 0.0939 | 0.0852
COc1cccc(C2(O)CCCCC2CN(C)C)c1 (centres undefined) [Tramadol] | 0.0149 | 0.00925 | 0.0025 | – | 0.0141 | 0.0437 | 0.00653 | 0.00694 | – | 0.00497 | 0.0131 | – | 0.058 | 0.00992 | 0.0152
CC(C)N(C(=O)CCl)c1ccccc1 [Propachlor] | 0.302 | 0.308 | 0.575 | 0.271 | – | 0.985 | 1.07 | 0.218 | 0.33 | 0.429 | 0.649 | 0.212 | 0.812 | 0.809 | 0.552
CCNc1nc(Cl)nc(NC(C)C)n1 [Atrazine] | 0.0725 | 0.025 | 0.0312 | – | – | – | 0.103 | 0.0247 | 0.0513 | – | 0.0313 | – | 0.136 | 0.451 | 0.0218
CCc1cccc(C)c1N(C(=O)CCl)C(C)COC (centres undefined) [Metolachlor] | – | – | – | – | – | – | 0.0124 | 0.0203 | 0.0161 | – | 0.0398 | – | 0.0409 | 0.167 | 0.0285
CC(C)N(C(=O)COc1nnc(C(F)(F)F)s1)c1ccc(F)cc1 [Flufenacet] | 0.0427 | – | 0.0323 | – | 0.0751 | – | 0.0399 | 0.0442 | – | – | 0.0707 | – | 0.151 | 0.0865 | 0.105
